Test results from US4178442A, “Novel cinnamoyles piperazines and homopiperazines, the method of preparing them and their application in therapeutics” (Delalande S. A., priority 1977, dated 1979).
Read-outs that look alike come from different tables or passages of the source.

What was measured:
in vivo = settings: for LD50: read-out: Toxicity: LD50; for mortality: read-out: Toxicity (Mortality)
Excerpt: *LD50 or percentage of mortality which is given between brackets

anaesthetized dog = assay: Antiangorous activity on anaesthetized dog: consumption of oxygen in the left ventricule and cardiac effort (KATZ's index); assay type: in vivo; settings: for inhibition in vivo at 2.3 mg/kg / inhibition in vivo at 1.25 mg/kg / inhibition in vivo at […] / inhibition in vivo at 2.5 mg/kg: Canis lupus familiaris, iv; for inhibition in vivo at […]: 0.15 mg/kg i.v. slow perfusion
Procedure, shortened: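 Katz index taken as mean arterial pressure multiplied by ECG (D2) heart rate, and myocardial O2 use as coronary sinus flow via modified Morawitz cannula times coronary arteriovenous O2 difference. Animals: pentobarbital-anaesthetized dogs (30 mg/kg i.v.), test compounds infused slowly intravenously.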

[1] = 2.3 mg/kg i.v. slow perfusion, read-out: Diminution in consumption of O2
[2] = 2.3 mg/kg i.v. slow perfusion, read-out: Diminution in the cardiac effort (IK)
[3] = 1.25 mg/kg i.v. slow perfusion, read-out: Diminution in consumption of O2
[4] = 1.25 mg/kg i.v. slow perfusion, read-out: Diminution in the cardiac effort (IK)
[5] = read-out: Diminution in consumption of O2
[6] = read-out: Diminution in the cardiac effort (IK)
[7] = 2.5 mg/kg i.v. slow perfusion, read-out: Diminution in consumption of O2
[8] = 2.5 mg/kg i.v. slow perfusion, read-out: Diminution in the cardiac effort (IK)

SMILES: COc1cc(/C=C/C(=O)N2CCN(CC(O)COc3ccc4c(c3)OCO4)CC2)cc(OC)c1OC (stereo not drawn) [760 529]
- LD50 (in vivo; iv): 115 mg/kg
- Diminution in consumption of O2: in time (anaesthetized dog; 2.3 mg/kg i.v. slow perfusion): 30 min
- Diminution in the cardiac effort (IK): in time (anaesthetized dog; 2.3 mg/kg i.v. slow perfusion): 15 min
- inhibition in vivo at 2.3 mg/kg (anaesthetized dog; [1]): 53%
- inhibition in vivo at 2.3 mg/kg (anaesthetized dog; [2]): 19%

SMILES: COc1cc(/C=C/C(=O)N2CCN(CC(O)COc3ccc(C(=O)NC4CCCCC4)c4c3OCCO4)CC2)cc(OC)c1OC (stereo not drawn) [770 831]
- mortality (in vivo; po, p.o.: 2000 mg/kg): 0%
- Diminution in consumption of O2: in time (anaesthetized dog; 1.25 mg/kg i.v. slow perfusion): 30 min
- Diminution in the cardiac effort (IK): in time (anaesthetized dog; 1.25 mg/kg i.v. slow perfusion): 45 min
- inhibition in vivo at 1.25 mg/kg (anaesthetized dog; [3]): 45%
- inhibition in vivo at 1.25 mg/kg (anaesthetized dog; [4]): 27%

SMILES: COc1cc(/C=C/C(=O)N2CCN(CC(O)COc3ccc(NC(=O)N(C)C)c4c3OCCO4)CC2)cc(OC)c1OC (stereo not drawn) [771 233]
- LD50 (in vivo; iv): 310 mg/kg
- inhibition in vivo at […] (anaesthetized dog; [5]): 29%
- inhibition in vivo at […] (anaesthetized dog; [6]): 9%

SMILES: COc1cc(/C=C/C(=O)N2CCN(CC(O)COc3ccc(C#N)c4c3OCCO4)CC2)cc(OC)c1OC (stereo not drawn) [770 585]
- mortality (in vivo; po, p.o.: 2000 mg/kg): 0%
- Diminution in consumption of O2: in time (anaesthetized dog; 2.5 mg/kg i.v. slow perfusion): 30 min
- Diminution in the cardiac effort (IK): in time (anaesthetized dog; 2.5 mg/kg i.v. slow perfusion): 30 min
- inhibition in vivo at 2.5 mg/kg (anaesthetized dog; [7]): 75%
- inhibition in vivo at 2.5 mg/kg (anaesthetized dog; [8]): 41%

SMILES: CNC(=O)N(C)c1ccc(OCC(O)CN2CCN(C(=O)/C=C/c3cc(OC)c(OC)c(OC)c3)CC2)c2c1OCCO2 (stereo not drawn) [771 238]
- mortality (in vivo; iv, 400 mg/kg i.v.): 0%
- Diminution in consumption of O2: in time (anaesthetized dog; 1.25 mg/kg i.v. slow perfusion): 30 min
- Diminution in the cardiac effort (IK): in time (anaesthetized dog; 1.25 mg/kg i.v. slow perfusion): 30 min
- inhibition in vivo at 1.25 mg/kg (anaesthetized dog; [3]): 40%
- inhibition in vivo at 1.25 mg/kg (anaesthetized dog; [4]): 38%

SMILES: COc1cc(/C=C/C(=O)N2CCN(CC(O)COc3ccc(OC(C)=O)c4c3OCCO4)CC2)cc(OC)c1OC (stereo not drawn) [780 004]
- mortality (in vivo; iv, 400 mg/kg i.v.): 10%
- Diminution in consumption of O2: in time (anaesthetized dog; 1.25 mg/kg i.v. slow perfusion): 30 min
- Diminution in the cardiac effort (IK): in time (anaesthetized dog; 1.25 mg/kg i.v. slow perfusion): 15 min
- inhibition in vivo at 1.25 mg/kg (anaesthetized dog; [3]): 22%
- inhibition in vivo at 1.25 mg/kg (anaesthetized dog; [4]): 14%

SMILES: CCCCNC(=O)Nc1ccc(OCC(O)CN2CCN(C(=O)/C=C/c3cc(OC)c(OC)c(OC)c3)CC2)c2c1OCCO2 (stereo not drawn) [770 634]
- mortality (in vivo; iv, 400 mg/kg i.v.): 30%
- inhibition in vivo at […] (anaesthetized dog; [5]): 69%
- inhibition in vivo at […] (anaesthetized dog; [6]): 27%

SMILES: COc1cc(/C=C/C(=O)N2CCN(CC(O)COc3ccc(C(C)(C)C)cc3)CC2)cc(OC)c1OC (stereo not drawn) [770 859]
- LD50 (in vivo; iv): 150 mg/kg
- Diminution in consumption of O2: in time (anaesthetized dog; 2.5 mg/kg i.v. slow perfusion): 30 min
- Diminution in the cardiac effort (IK): in time (anaesthetized dog; 2.5 mg/kg i.v. slow perfusion): 60 min
- inhibition in vivo at 2.5 mg/kg (anaesthetized dog; [7]): 30%
- inhibition in vivo at 2.5 mg/kg (anaesthetized dog; [8]): 52%

SMILES: COc1cc(/C=C/C(=O)N2CCN(CC(O)COc3ccc(Cl)cc3)CC2)cc(OC)c1OC (stereo not drawn) [760 476]
- LD50 (in vivo; iv): 185 mg/kg
- Diminution in consumption of O2: in time (anaesthetized dog; 2.3 mg/kg i.v. slow perfusion): 23 min
- Diminution in the cardiac effort (IK): in time (anaesthetized dog; 2.3 mg/kg i.v. slow perfusion): 15 min
- inhibition in vivo at 2.3 mg/kg (anaesthetized dog; [1]): 70%
- inhibition in vivo at 2.3 mg/kg (anaesthetized dog; [2]): 5%

SMILES: COc1cc(/C=C/C(=O)N2CCN(CC(O)COc3ccc([N+](=O)[O-])c(C)c3)CC2)cc(OC)c1OC (stereo not drawn) [770 963]
- LD50 (in vivo; iv): 190 mg/kg
- Diminution in consumption of O2: in time (anaesthetized dog; 2.5 mg/kg i.v. slow perfusion): 30 min
- Diminution in the cardiac effort (IK): in time (anaesthetized dog; 2.5 mg/kg i.v. slow perfusion): 30 min
- inhibition in vivo at 2.5 mg/kg (anaesthetized dog; [7]): 58%
- inhibition in vivo at 2.5 mg/kg (anaesthetized dog; [8]): 66%

SMILES: COc1cc(/C=C/C(=O)N2CCN(CC(O)COc3ccc(C(N)=O)cc3)CC2)cc(OC)c1OC (stereo not drawn) [770 058]
- LD50 (in vivo; iv): 315 mg/kg
- Diminution in consumption of O2: in time (anaesthetized dog; 2.5 mg/kg i.v. slow perfusion): 30 min
- Diminution in the cardiac effort (IK): in time (anaesthetized dog; 2.5 mg/kg i.v. slow perfusion): 30 min
- inhibition in vivo at 2.5 mg/kg (anaesthetized dog; [7]): 36%
- inhibition in vivo at 2.5 mg/kg (anaesthetized dog; [8]): 35%
